Test: xn = mol fraction of the nth substance listed

O=S(=O)([N-]S(=O)(=O)C(F)(F)F)C(F)(F)F.[Li+] + C1COCO1
298.15 K, 100 kPa
Conditions	electrical conductivity [S/m]	viscosity [mPa·s]
x1 = 8e-07	1.3e-05	–
x1 = 3.74e-06	3.1e-05	–
x1 = 8.82e-06	5e-05	0.58
x1 = 1.615e-05	6.8e-05	0.582
x1 = 2.378e-05	8.1e-05	0.583
x1 = 3.941e-05	0.000103	0.584
x1 = 8.444e-05	0.000138	0.585
x1 = 0.0001607	0.0002	0.588
x1 = 0.0004162	0.000398	0.589
x1 = 0.0007624	0.000536	0.591
x1 = 0.001538	0.000978	0.595
x1 = 0.002969	0.00173	0.608
x1 = 0.004513	0.00309	0.629
x1 = 0.005877	0.00459	0.633
x1 = 0.007354	0.00664	0.637
x1 = 0.01099	0.0164	0.661
x1 = 0.0146	0.0294	0.683
x1 = 0.02174	0.0659	0.758
x1 = 0.03572	0.169	0.905
x1 = 0.06897	0.446	1.388
x1 = 0.08475	0.563	1.684
x1 = 0.1	0.643	2.11
x1 = 0.1285	0.738	3.122
x1 = 0.1563	0.744	4.4
x1 = 0.1818	0.69	6.52
x1 = 0.2054	0.606	9.99
x1 = 0.2273	0.512	13.96
x1 = 0.2467	0.431	20.04
x1 = 0.2703	0.337	30.3

CCCCn1cc[n+](C)c1C.O=S(=O)([N-]S(=O)(=O)C(F)(F)F)C(F)(F)F + CC1COC(=O)O1
101.3 kPa
Conditions	viscosity [mPa·s]
288.15 K, x1 = 0.6989	76.5
293.15 K, x1 = 0.0902	4.602
293.15 K, x1 = 0.6034	43.21
298.15 K, x1 = 0.4039	16.99
303.15 K, x1 = 0.193	5.92
303.15 K, x1 = 0.4996	20.52
303.15 K, x1 = 0.8107	50
303.15 K, x1 = 1	78.6
308.15 K, x1 = 0.193	5.23
308.15 K, x1 = 0.8107	40.47
313.15 K, x1 = 0.0902	2.96
313.15 K, x1 = 0.4039	10.52
313.15 K, x1 = 1	50.1
318.15 K, x1 = 0.193	4.177
318.15 K, x1 = 0.2934	6.16
318.15 K, x1 = 0.4996	13.02
318.15 K, x1 = 0.8107	27.72
318.15 K, x1 = 1	41.04
328.15 K, x1 = 0.0902	2.263
333.15 K, x1 = 0.8107	17.54
333.15 K, x1 = 1	24.25
338.15 K, x1 = 0.2934	4.026
338.15 K, x1 = 0.4996	7.4
343.15 K, x1 = 0.4996	6.47
343.15 K, x1 = 0.6034	8.56

Source: the CheMixHub ionic liquid set
